Results: patent publication EP2562253B1 (priority 2010, dated 2011)
Where two headings read alike, the source gives them in different places.

Experiments:
[1] = tested on: wild-type enzyme RBS; type: biochemical, Burkholderia sp. YT strain
[2] = tested on: wild-type enzyme RBS; assay: Reaction inhibition of wild-type enzyme RBS by various compounds; type: biochemical, Burkholderia sp. YT strain; settings: 3-quinuclidinone 5 mM, NADPH 0.25 mM, pH 6.5, 30°C
Protocol: A cell-free extract of the wild-type enzyme was obtained as in Reference Example 4. The 3-quinuclidinone reduction activity of this cell-free extract was measured, and given as activity without inhibitor. The cell-free extract was added to 100 mM phosphate buffer (pH 6.5) containing the compounds shown in Table 2, 3-quinuclidinone (5 mM) and the coenzyme NADPH (0.25 mM), and reacted for 1 minute at 30°C, and reduction activity of 3-quinuclidinone was calculated from the rate of decrease in absorbancy at 340 nm.
Relative activity was calculated by the following formula, and used as an indicator of reaction inhibition by the various compounds. Relative activity (%) = [enzyme activity in presence of compound]/[enzyme activity without inhibitor] × 100 [formula]

Compound | Remaining activity (%) ([1]; pH 6.5) | Remaining activity (%) ([1]; pH 6.5, 310000 µM) | Remaining activity (%) ([1]; pH 6.5, 620000 µM) | Relative activity (%) ([2]; additive 0.31 M, 310000 µM) | Relative activity (%) ([2]; additive 0.62 M, 620000 µM)
OC(CCCl)c1cccs1 (stereo not drawn) [3-Chloro-1-(2-thienyl)propan-1-ol] | 0% | – | – | – | –
O=C(CCCl)c1cccs1 [3-Chloro-1-(2-thienyl)propan-1-one] | 0% | – | – | – | –
Cl.O=C1CN2CCC1CC2 [3-Quinuclidinone hydrochloride] | – | 73% | 44% | – | –
CC(C)=O [Acetone] | 80% | – | – | – | –
CC(=O)c1ccccc1 [Acetophenone] | 81% | – | – | – | –
CC(=O)c1cccs1 [Acetylthiophene] | 72% | – | – | – | –
O=C(CCl)c1ccccc1 [Phenacyl chloride] | 0% | – | – | – | –
O=C(CCl)c1cccc(Cl)c1 [m-chlorophenacyl chloride] | 0% | – | – | – | –
Potassium chloride | – | 46% | 26% | 14% | 5%
Sodium chloride | – | 46% | 24% | 15% | 3%
Sodium sulfate | – | 76% | 79% | 31% | 17%
